Measurements published in publication PMC12339982 (Nature Communications, 2025).
Substitutions are numbered along the chain they refer to.

What was measured:
TauT L306A mutant = molecular target: T1, TauT L306A mutant (Homo sapiens, UniProt P31641, L306A); assay: MST binding, TauT L306A; conditions: mean ± s.e.m., n=3
T1 sequence (P31641 1-620 L306A): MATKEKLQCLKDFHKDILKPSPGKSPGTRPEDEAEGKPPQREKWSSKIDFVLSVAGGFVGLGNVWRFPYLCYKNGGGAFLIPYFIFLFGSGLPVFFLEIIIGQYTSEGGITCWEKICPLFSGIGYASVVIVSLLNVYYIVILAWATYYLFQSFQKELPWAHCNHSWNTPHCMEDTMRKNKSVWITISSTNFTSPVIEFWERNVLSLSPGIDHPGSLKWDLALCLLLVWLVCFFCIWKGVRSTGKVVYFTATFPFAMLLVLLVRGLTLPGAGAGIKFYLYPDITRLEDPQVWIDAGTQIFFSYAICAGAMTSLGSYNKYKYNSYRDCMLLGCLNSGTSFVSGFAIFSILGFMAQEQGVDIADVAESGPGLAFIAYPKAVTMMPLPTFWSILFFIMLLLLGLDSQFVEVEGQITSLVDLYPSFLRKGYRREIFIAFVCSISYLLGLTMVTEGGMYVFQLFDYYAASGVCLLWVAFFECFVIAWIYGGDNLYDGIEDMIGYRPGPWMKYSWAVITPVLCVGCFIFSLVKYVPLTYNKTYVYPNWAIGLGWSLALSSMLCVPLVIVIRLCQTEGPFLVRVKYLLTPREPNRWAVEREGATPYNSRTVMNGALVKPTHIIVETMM

TauT^WT and variants [1] = molecular target: T2, TauT^WT and variants (Homo sapiens, UniProt P31641, L134C); assay: GAA uptake assay; assay type: cell-based; conditions: mutation Leu134Cys
T2 sequence (P31641 1-620 L134C): T1 sequence (P31641 1-620 L306A) with L134C, A306L

TauT^WT and variants [2] = assay: GAA uptake assay; assay type: cell-based, human; conditions: amino acid substitutions in Gly57, Phe58, Leu306
TauT F58A mutant = molecular target: T3, TauT F58A mutant (Homo sapiens, UniProt P31641, F58A); assay: MST binding, TauT F58A; conditions: mean ± s.e.m., n=3
T3 sequence (P31641 1-620 F58A): T1 sequence (P31641 1-620 L306A) with F58A, A306L

TauT^WT and variants [3] = molecular target: T2, TauT^WT and variants; assay: [3H]taurine uptake; assay type: cell-based; conditions: mutation Leu134Cys
TauT^WT and variants [4] = assay: [3H]taurine uptake; assay type: cell-based, human

| Compound | Kd (MST) (TauT L306A mutant) | transport activity of GAA (TauT^WT and variants [1]) | transport activity for GAA (TauT^WT and variants [2]) | Kd (MST) (TauT F58A mutant) | transport activity of taurine (TauT^WT and variants [3]) | taurine transport activity (TauT^WT and variants [4]; Asn63, Ser301, Asn333 substituted with alanine or aspartate (Na1 site)) | transport activity for taurine (TauT^WT and variants [4]; amino acid substitutions in Gly57, Phe58, Leu306) | taurine transport activity (TauT^WT and variants [4]; mutations in Asp401 and Ser402 (Na2 site)) |
| --- | --- | --- | --- | --- | --- | --- | --- | --- |
| [H]/N=C(/N)NCC(=O)O [GAA, guanidinoacetate] | drastic loss of GAA binding affinity | greater transport activity | decrease in transport activity |  |  |  |  |  |
| NCCS(=O)(=O)O [Taurine, taurine] |  |  |  | reduced the taurine binding to varying extents | significantly lower transport activity | complete loss of function | decrease in transport activity | weaken the substrate transport function |
